{"source": "patent US20240002846A1", "about": "“COMPOSITIONS AND METHODS FOR THE DIAGNOSIS AND TREATMENT OF ITCH” (Duke University, priority 2020, published 2024)", "key": {"hTRPV4": {"biological_target": "T1, hTRPV4 (Homo sapiens, UniProt Q9HBA0)", "T1 construct": "expressed in transfected cells; host or cells: HEK293 (ATCC CRL-1573)", "test": "Inside-out patch-clamp, hTRPV4", "type": "biochemical", "conditions": "5 μM LPC 18:1; WT-hTRPV4", "protocol": "(§1) Cell culture and transfection. HEK293 cells (ATCC® CRL-1573) were cultured on poly-D-lysine coated coverslips in 24-well plate containing DMEM media with high-Glucose (Gibco, Gaithersburg, MD) supplemented with 10% fetal bovine serum (FBS, HyClone Laboratories, Logan, UT) and 100 U/mL of penicillin/streptomycin (Gibco, Gaithersburg, MD). Cell cultures were maintained with 5% of CO2 in a humidified incubator at 37° C. HEK cells were transfected with rat or human wild type or mutant TRPV4 channels with EGFP or YFP coupled to their C-termini (1.5 μg of plasmid for excised patch clamp and Ca^2+ imaging and 200 ng for single-channel experiments). […]\n(§2) Electrophysiology. Currents were recorded using the inside-out configuration of the patch-clamp technique (Hamill et al. Pflugers Arch. 1981, 391, 85-100). […] Mean current values in response to GSK1016790A or LPC 18:1 were measured after channel activation had reached the steady-state (˜3 min). […] Currents were low-pass filtered at 2 kHz and sampled at 10 kHz with an EPC 10 amplifier (HEKA Elektronik) and were plotted and analyzed with Igor Pro (Wavemetrics Inc.)."}, "rTRPV4-R746D [1]": {"biological_target": "T2, rTRPV4-R746D (Rattus norvegicus, UniProt Q9ERZ8, R746D)", "T2 sequence (Q9ERZ8 whole entry R746D)": "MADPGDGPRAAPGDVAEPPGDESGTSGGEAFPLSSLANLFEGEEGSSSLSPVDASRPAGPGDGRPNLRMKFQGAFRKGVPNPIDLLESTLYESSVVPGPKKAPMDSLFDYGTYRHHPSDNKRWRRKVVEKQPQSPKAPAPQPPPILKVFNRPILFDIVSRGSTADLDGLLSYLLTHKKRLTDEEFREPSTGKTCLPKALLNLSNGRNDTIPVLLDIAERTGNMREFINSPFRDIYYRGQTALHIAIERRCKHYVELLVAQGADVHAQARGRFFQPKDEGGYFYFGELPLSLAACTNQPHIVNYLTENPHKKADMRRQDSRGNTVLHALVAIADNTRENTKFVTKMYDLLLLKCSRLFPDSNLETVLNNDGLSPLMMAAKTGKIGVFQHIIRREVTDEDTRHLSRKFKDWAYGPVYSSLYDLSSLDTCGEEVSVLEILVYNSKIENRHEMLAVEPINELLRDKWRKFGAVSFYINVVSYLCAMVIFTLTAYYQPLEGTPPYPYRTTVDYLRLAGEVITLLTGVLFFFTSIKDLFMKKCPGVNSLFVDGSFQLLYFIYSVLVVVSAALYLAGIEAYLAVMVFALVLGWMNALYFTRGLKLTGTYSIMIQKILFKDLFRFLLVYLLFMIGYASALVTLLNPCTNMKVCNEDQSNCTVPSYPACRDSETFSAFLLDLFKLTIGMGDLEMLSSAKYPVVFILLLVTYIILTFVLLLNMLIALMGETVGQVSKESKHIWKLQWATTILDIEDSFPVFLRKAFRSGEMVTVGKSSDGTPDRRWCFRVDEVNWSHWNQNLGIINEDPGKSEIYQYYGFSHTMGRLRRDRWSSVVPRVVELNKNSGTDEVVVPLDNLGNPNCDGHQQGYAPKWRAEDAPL", "test": "In vitro interaction (overlay) assay LPC-TRPV4-R746D", "type": "binding", "parameters": "made in house; host or cells: HEK293 cells, surface protein fraction", "conditions": "200 pmol per spot", "protocol": "(§3) In vitro interaction assays of LPC-TRPV4. Surface proteins were obtained from HEK293 cells transiently expressing rTRPV4-EGFP channels using the Pierce Cell Surface Isolation kit (Pierce Biotechnology, Rockford, IL) following the manufacturer's instructions. Overlay assays were performed as previously described (Morales-Lazaro et al. Nat. Commun. 2016, 7, 13092). In brief, LPC 18:1 was spotted (200 pmol per spot) onto a nitrocellulose membrane (GE Healthcare, Pittsburgh, PA) and then blocked with 1% fatty acid-free BSA (Calbiochem) and 6% fat-free dried milk in PBS. Membranes were then incubated with the surface protein solutions and exposed to anti-GFP antibody (Sigma, St. Louis, MO) diluted 1:1000 in 3% fat-free dried milk in PBST (with 0.1% of Tween). Membranes were incubated with horseradish peroxidase-conjugated secondary anti-rabbit antibody (Cell Signaling Technology) diluted 1:7500 in 6% fat-free dried milk in PBST. The binding of rTRPV4-EGFP and TRPV4-R746D-EGFP to the lipid-containing spots was visualized by chemiluminescence by exposing the blot for 15 min (Amersham Bioscience, Piscataway, NJ). Semi-quantitative densitometric analysis was done using ImageJ (NIH) and expressed as relative protein levels of TRPV4 bound to each spot."}, "hTRPV4-R746G": {"biological_target": "T3, hTRPV4-R746G (Homo sapiens, UniProt Q9HBA0, R746G)", "T3 construct": "expressed in transfected cells; host or cells: HEK293", "T3 sequence (Q9HBA0 whole entry R746G)": "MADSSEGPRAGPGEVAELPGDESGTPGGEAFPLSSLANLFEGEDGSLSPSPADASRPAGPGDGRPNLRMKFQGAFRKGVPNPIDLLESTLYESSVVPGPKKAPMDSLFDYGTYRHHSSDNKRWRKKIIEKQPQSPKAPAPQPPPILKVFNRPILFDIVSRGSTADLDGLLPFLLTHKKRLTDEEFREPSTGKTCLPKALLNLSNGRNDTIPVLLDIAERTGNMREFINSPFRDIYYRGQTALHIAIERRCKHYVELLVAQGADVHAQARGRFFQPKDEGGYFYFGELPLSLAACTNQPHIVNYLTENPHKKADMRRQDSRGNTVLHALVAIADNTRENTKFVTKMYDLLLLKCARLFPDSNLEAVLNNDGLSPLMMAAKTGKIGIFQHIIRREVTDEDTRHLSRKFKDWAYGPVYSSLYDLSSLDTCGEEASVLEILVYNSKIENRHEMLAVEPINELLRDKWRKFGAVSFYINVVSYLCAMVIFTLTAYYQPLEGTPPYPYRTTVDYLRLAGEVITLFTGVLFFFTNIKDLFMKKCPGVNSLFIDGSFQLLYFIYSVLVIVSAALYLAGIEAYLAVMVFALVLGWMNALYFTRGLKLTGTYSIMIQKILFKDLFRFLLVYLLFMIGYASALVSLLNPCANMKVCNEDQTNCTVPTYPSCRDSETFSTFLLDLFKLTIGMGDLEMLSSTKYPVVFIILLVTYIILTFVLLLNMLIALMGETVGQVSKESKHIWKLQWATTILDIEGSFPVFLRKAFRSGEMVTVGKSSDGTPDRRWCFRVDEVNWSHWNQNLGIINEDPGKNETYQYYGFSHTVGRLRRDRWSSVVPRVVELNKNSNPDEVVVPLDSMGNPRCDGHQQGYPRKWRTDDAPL", "test": "Inside-out patch-clamp, hTRPV4-R746G", "type": "biochemical", "conditions": "5 μM LPC 18:1", "protocol": "as §1, §2"}, "rTRPV4 [2]": {"biological_target": "T4, rTRPV4 (Rattus norvegicus, UniProt Q9ERZ8)", "T4 sequence (Q9ERZ8 whole entry)": "as the sequence (Q9ERZ8 whole entry R746D) above, with D746R counted along it", "test": "Inside-out patch-clamp, HEK cells transfected with rTRPV4", "type": "biochemical", "parameters": "expressed in transfected cells; host or cells: HEK293", "conditions": "5 μM LPC 18:1, WT-rTRPV4, inside-out patches", "protocol": "as §1, §2"}, "hTRPV4-121AAWAA125": {"biological_target": "T5, hTRPV4-121AAWAA125 (Homo sapiens, UniProt Q9HBA0, K121A/K125A/R122A/R124A)", "T5 construct": "expressed in transfected cells; host or cells: HEK293", "T5 sequence (Q9HBA0 whole entry K121A/R122A/R124A/K125A)": "as the sequence (Q9HBA0 whole entry R746G) above, with K121A, R122A, R124A, K125A, G746R counted along it", "test": "Inside-out patch-clamp, hTRPV4-121AAWAA125", "type": "biochemical", "conditions": "5 μM LPC 18:1", "protocol": "as §1, §2"}, "rTRPV4 [3]": {"biological_target": "T4, rTRPV4", "test": "In vitro interaction (overlay) assay LPC-TRPV4", "type": "binding", "parameters": "made in house; host or cells: HEK293 cells, surface proteins isolated with Pierce Cell Surface Isolation kit", "conditions": "200 pmol per spot", "protocol": "as §3"}, "rTRPV4-R746D [4]": {"biological_target": "T2, rTRPV4-R746D", "test": "Inside-out patch-clamp, HEK cells transfected with rTRPV4-R746D", "type": "biochemical", "parameters": "expressed in transfected cells; host or cells: HEK293", "conditions": "5 μM LPC 18:1", "protocol": "as §1, §2"}, "hTRPV4-R746C": {"biological_target": "T6, hTRPV4-R746C (Homo sapiens, UniProt Q9HBA0, R746C)", "T6 construct": "expressed in transfected cells; host or cells: HEK293", "T6 sequence (Q9HBA0 whole entry R746C)": "as the sequence (Q9HBA0 whole entry R746G) above, with G746C counted along it", "test": "Inside-out patch-clamp, hTRPV4-R746C", "type": "biochemical", "conditions": "5 μM LPC 18:1", "protocol": "as §1, §2"}}, "note": "“And” between values parts separate entries of the source, which are not always exact repeats. Identical values can stand only once."}
{"substance": "LPC 18:1", "values": [{"measurement": "average activation of currents, normalized to 1 μM GSK101", "setting": "hTRPV4", "value": "48±6", "unit": "%"}, {"measurement": "binding of LPC 18:1 to rTRPV4-R746D relative to rTRPV4", "setting": "rTRPV4-R746D [1]", "value": "significantly reduced binding"}, {"measurement": "binding of LPC 18:1 to rTRPV4-R746D relative to rTRPV4", "setting": "rTRPV4-R746D [1]; listed as LPC (18:1)", "value": "significant reduction of this interaction"}, {"measurement": "average activation of currents, normalized to 1 μM GSK101", "setting": "hTRPV4-R746G", "value": "13±4", "unit": "%"}, {"measurement": "average activation of currents, normalized to 1 μM GSK101", "setting": "rTRPV4 [2]", "value": "54±4", "unit": "%"}, {"measurement": "average activation of currents, normalized to 1 μM GSK101", "setting": "rTRPV4 [2]; listed as LPC (18:1)", "value": "54% and ~50%"}, {"measurement": "average activation of currents, normalized to 1 μM GSK101", "setting": "hTRPV4-121AAWAA125", "value": "43±4", "unit": "%"}, {"measurement": "binding of LPC 18:1 to rTRPV4", "setting": "rTRPV4 [3]", "value": "demonstrated binding"}, {"measurement": "average activation of currents, normalized to 1 μM GSK101", "setting": "rTRPV4-R746D [4]", "value": "15±3", "unit": "%"}, {"measurement": "average activation of currents, normalized to 1 μM GSK101", "setting": "hTRPV4-R746C", "value": "11±4", "unit": "%"}]}
